Data set [1] can be described thus: Delta Logarithm of Partition Coefficient value was determined. As to conditions: octanol/water.
The target in data set [2] is T1, Human immunodeficiency virus type 1 integrase (Human immunodeficiency virus 1, UniProt Q7ZJM1). Nature of the data set: (§1) Inhibitory activity against 3'-processing of DNA by HIV-1 integrase. It counts as functional.
Data set [3] concerns the target T1, Human immunodeficiency virus type 1 integrase. Nature of the data set: Integration of DNA by HIV -1 integrase.
Data set [4] has the same target. In words: Inhibitory activity against 3'-processing of DNA byHIV-1 integrase. The data set is classed as functional.
Data set [5] has the same target. The description is as §1.

Results on 33 compounds are retold here after ChEMBL document CHEMBL1130329, “Coumarin-based inhibitors of HIV integrase” (J Med Chem, 1997).

pIC50: −log10 of the molar value. Where “and” joins values, the source holds several entries; their conditions need not be identical. Identical values can stand only once.

T1 sequence (Q7ZJM1 whole entry): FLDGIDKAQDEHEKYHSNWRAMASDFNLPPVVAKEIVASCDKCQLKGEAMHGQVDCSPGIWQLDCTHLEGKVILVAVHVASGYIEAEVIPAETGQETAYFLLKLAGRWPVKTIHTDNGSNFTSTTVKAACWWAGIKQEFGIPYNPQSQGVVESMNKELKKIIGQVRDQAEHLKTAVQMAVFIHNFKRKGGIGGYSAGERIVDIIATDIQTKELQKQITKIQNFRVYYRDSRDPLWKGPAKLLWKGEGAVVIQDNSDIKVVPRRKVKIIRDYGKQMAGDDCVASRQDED

For `O=c1c(C(c2ccc(/C=C/c3ccccc3)cc2)c2c(O)oc3ccccc3c2=O)c(O)oc2ccccc12`, in data set [1], the “delta Log P” value is 4.14. The pIC50 in data set [2] was 5.26 and 5.04 and 5.15; in data set [3], 5.43 and 5.02.
As to `COc1cc(C(c2c(O)c3ccccc3oc2=O)c2c(O)c3ccccc3oc2=O)ccc1O`, the “delta Log P” value in data set [1] is reported as 1.05. The pIC50 was 3.70 and 3.75 and 3.72 in data set [2]; 4.12 and 3.97 in data set [3].
For the compound `O=c1c(C(c2ccc(-c3ccccc3)cc2)c2c(O)oc3ccccc3c2=O)c(O)oc2ccccc12`, the “delta Log P” value in data set [1] turned out to be 3.33. For the same compound, the pIC50 in data set [2] was 4.85 and 4.80 and 4.82; in data set [3], 4.89 and 4.55.
With `O=C(O)c1ccc(C(c2c(O)oc3ccccc3c2=O)c2c(O)oc3ccccc3c2=O)cc1`, the pIC50 was 4.18 and 4.32 in data set [2]; 4.27 and 4.31 in data set [3].
On to `O=c1c(Cc2c(O)oc3cc(O)ccc3c2=O)c(O)oc2cc(O)ccc12`, for which the negative logarithm of the IC50 (pIC50) in data set [2] was 4.33; in data set [3] it was 4.35.
In the case of `O=c1c(C(c2ccc3ccccc3c2)c2c(O)oc3cc(O)ccc3c2=O)c(O)oc2cc(O)ccc12`, the pIC50 in data set [2] is 5.38; in data set [3] it was 5.45.
With `O=c1c(C(c2ccc3ccccc3c2)c2c(O)oc3ccccc3c2=O)c(O)oc2ccccc12`, the “delta Log P” value in data set [1] is recorded as 2.6. Moreover, in data set [2], the concentration for half-maximal inhibition (IC50) was 19 µM and 20 µM (2×). Also, in data set [3], the pIC50 was 4.80 and 5.05.
Turning to `O=c1c(C(c2cnc3ccccc3c2)c2c(O)oc3ccccc3c2=O)c(O)oc2ccccc12`, in data set [1], the “delta Log P” value was determined as 1.6. For the same compound, the negative logarithm of the IC50 (pIC50) in data set [2] is 4.40 and 4.54 and 4.46; in data set [3] it was 4.64 and 4.85.
Regarding `O=c1c(C(c2ccc([N+](=O)[O-])cc2)c2c(O)oc3ccccc3c2=O)c(O)oc2ccccc12`, the “delta Log P” value in data set [1] is given as 1.37. Further, the pIC50 was 4.24 and 4.27 in data set [2]; 4.30 in data set [4]; 4.92 and 4.62 in data set [3].
In the case of `O=c1oc2ccccc2c(O)c1C1c2c(c3ccccc3oc2=O)Oc2c1c(=O)oc1ccccc21`, the figures for the pIC50 in data set [2] and in data set [3] were 4.45 and 4.65, respectively.
As for `O=c1c(Cc2ccc(Cc3c(O)oc4ccccc4c3=O)cc2)c(O)oc2ccccc12`, the pIC50 in data set [2] was 4.09; in data set [3], 4.16.
With `O=c1c(C(c2cc(OCc3ccccc3)cc(OCc3ccccc3)c2)c2c(O)oc3ccccc3c2=O)c(O)oc2ccccc12`, the “delta Log P” value in data set [1] is recorded as 5.15. In addition, the pIC50 in data set [2] is 5.10 and 4.96 and 5.00; in data set [3], 4.92 and 5.43.
As to `CN(C)c1ccc(C(c2c(O)oc3ccccc3c2=O)c2c(O)oc3ccccc3c2=O)cc1`, the “delta Log P” value in data set [1] was found to be 1.88. In addition, the pIC50 in data set [2] is 4.00 and 3.72; in data set [4] it was 4.06; in data set [3], 4.30 and 4.06.
Turning to `O=c1cc(O)c2ccc(O)cc2o1`, the pIC50 in data set [2] is 3.52; in data set [3], 3.49.
As for `O=c1c(Cc2ccccc2Cc2c(O)oc3ccccc3c2=O)c(O)oc2ccccc12`, the negative-log IC50 (pIC50) in data set [2] was 4.34 and 4.35; in data set [3] it was 4.69 and 4.48.
`O=c1c(C(c2ccc(/C=C/c3ccccc3)cc2)c2c(O)oc3cc(O)ccc3c2=O)c(O)oc2cc(O)ccc12` gave a pIC50 in data set [3] of 5.74.
In the case of `O=c1c(C(c2ccc(C(c3c(O)oc4ccccc4c3=O)c3c(O)oc4ccccc4c3=O)cc2)c2c(O)oc3ccccc3c2=O)c(O)oc2ccccc12`, the “delta Log P” value in data set [1] came out at 2.84. The compound further showed a pIC50 in data set [2] of 5.70.
Turning to `O=c1c(C(c2ccco2)c2c(O)oc3ccccc3c2=O)c(O)oc2ccccc12`, the “delta Log P” value in data set [1] came to 0.45. Further, the pIC50 in data set [2] was 4.12 and 4.47 and 4.27; in data set [3], 3.88 and 3.91.
Take `O=c1c(Cc2cccc(Cc3c(O)oc4ccccc4c3=O)c2)c(O)oc2ccccc12`: the pIC50 was 4.47 and 4.40 in data set [2]; 4.95 and 4.56 in data set [3].
In the case of `O=c1c(C(c2ccccn2)c2c(O)oc3cc(O)ccc3c2=O)c(O)oc2cc(O)ccc12`, the pIC50 in data set [5] is 4.09; in data set [2] it was 4.03 and 4.08; in data set [3], 4.31 and 4.15.
Consider `O=c1c(C(c2ccc3c(c2)Cc2ccccc2-3)c2c(O)oc3ccccc3c2=O)c(O)oc2ccccc12`, for which the “delta Log P” value in data set [1] was found to be 3.4. Further, in data set [2], the IC50 is 10 µM (2×) and 11 µM. The pIC50 in data set [3] was 5.02 and 5.11.
For `O=c1oc2ccccc2c(O)c1Cc1c(O)c2ccccc2oc1=O` [DICUMAROL], the pIC50 is below 3.52 in data set [2] and below 4.00 in data set [3].
For `O=c1c(C(c2ccc(OCc3ccccc3)cc2)c2c(O)oc3ccccc3c2=O)c(O)oc2ccccc12`, the “delta Log P” value in data set [1] was 3.06. For the same compound, the pIC50 in data set [2] is 4.72 and 5.07 and 4.70; in data set [3], 4.85 and 4.62.
Turning to `O=c1c(C(c2cccnc2)c2c(O)oc3cc(O)ccc3c2=O)c(O)oc2cc(O)ccc12`, the pIC50 in data set [5] is 4.05; in data set [2], 4.21 and 3.94; in data set [3], 4.60 and 4.01.
Regarding `O=c1c(C(c2cccs2)c2c(O)oc3ccccc3c2=O)c(O)oc2ccccc12`, in data set [1], the “delta Log P” value is reported as 0.86. Besides, the pIC50 in data set [2] is 4.00 and 3.98; in data set [4], 3.96; in data set [3] it was 3.83.
On to “3,3'-(Ferrocenomethylene)bis[4-hydroxycoumarin]”, for which the pIC50 was 4.96 and 5.44 in data set [2]; 5.15 and 5.30 in data set [3].
Turning to `O=c1c(C(c2ccccc2)c2c(O)oc3cc(O)ccc3c2=O)c(O)oc2cc(O)ccc12`, the negative-log IC50 (pIC50) in data set [2] is 4.76; in data set [3] it was 4.65.
As to `O=c1cc(O)c2ccccc2o1` [4-HYDROXYCOUMARINS], the pIC50 in data set [2] and in data set [3] was below 4.00 in each case.
Regarding `O=c1c(C(c2ccc(C(c3c(O)oc4cc(O)ccc4c3=O)c3c(O)oc4cc(O)ccc4c3=O)cc2)c2c(O)oc3cc(O)ccc3c2=O)c(O)oc2cc(O)ccc12`, the results for the pIC50 in data set [2] and in data set [3] were 6.43 and 6.48, respectively.
For `O=c1c(C(c2ccccc2)c2c(O)oc3ccccc3c2=O)c(O)oc2ccccc12`, in data set [1], the “delta Log P” value came out at 1.6. The pIC50 in data set [2] is 4.36 and 4.37; in data set [3] it was 4.41.
On to `O=c1oc2ccccc2c(O)c1C1c2ccccc2Oc2c1c(=O)oc1ccccc21` (centres undefined), for which the pIC50 was 3.92 and 3.90 in data set [2]; 3.91 and 3.79 in data set [3].
Consider `O=c1c(C(c2ccc(O)cc2)c2c(O)oc3ccccc3c2=O)c(O)oc2ccccc12`, for which the “delta Log P” value in data set [1] is recorded as 1.1. The pIC50 was 3.85 and 3.89 in data set [2]; 4.12 and 4.13 in data set [3].
Regarding `O=c1c(C(c2cccc(C(c3c(O)oc4ccccc4c3=O)c3c(O)oc4ccccc4c3=O)c2)c2c(O)oc3ccccc3c2=O)c(O)oc2ccccc12`, the pIC50 in data set [2] is 5.52 and 5.54; in data set [3] it was 5.92 and 5.70.

Broadly, the pIC50 is the negative decadic logarithm of the IC50, by convention in mol/L. High values mean a low IC50, low ones a high IC50. What is called IC50 is the concentration needed to halve the response being measured.
